Measured values as given in the supplement of paper PMC11208160.

Assay: recombinant UMI read abundance after kanamycin selection (control-corrected) (log10(CPM+1)); higher = more efficient recombination; extreme values may be limits of the assay; sequences stand for … in AGTGCAGAGAAAATCGGCCAGTTTTCTCTGCCTGCAGTCCGCATGCCGTGGGACCCCTTGGGTTCTAACCTGTTGCCTAGATTTATGCAGCGGACTGCCTTTCTCCCAAAGTGATAAACCGG…AGGTTGGTTTCACT; site = the 11-nt donor
In short: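 For the IS621 bridge recombinase, a pooled Escherichia coli screen tested donor and donor-binding-loop pairs. Cells received the pair library together with a target plasmid encoding a fixed target and T7-inducible recombinase, then went onto IPTG (0.07 mM) plus kanamycin or unselected plates in duplicate. After PCR across the donor–target junction and sequencing, recombinant UMI counts were normalized to CPM, averaged, and scaled by control-derived factors. Each value is given as log10(CPM+1).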
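Also: IS621 bridge recombinase in Escherichia coli cells against a fixed T5 target plasmid.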

Sequence | recombinant UMI read abundance (log10)
TATGGACCATGGACCGGTTTTCCCGGTAATCCGTATTTGCA (site TATGGACCTTG) | 0
TATGGGTCATGGACCGGTTTTCCCGGTAATCCGTATTTGCT (site TATGGGTCTAG) | 2.88
TATGTAACATGGACCGGTTTTCCCGGTAATCCGTATTTGCT (site AATGTAACTAG) | 0.864
TATGTAACATGGACCGGTTTTCCCGGTAATCCGTATTTGCT (site CATGTAACTAG) | 1.18
TATGTAACATGGACCGGTTTTCCCGGTAATCCGTATTTGCT (site GATGTAACTAG) | 1.67
TATGTAACATGGACCGGTTTTCCCGGTAATCCGTATTTGCT (site TATGTAACTAG) | 2.06
TATGTATCATGGACCGGTTTTCCCGGTAATCCGTATTTGCC (site TATGTATCTGG) | 2.66
TATGTGGCATGGACCGGTTTTCCCGGTAATCCGTATTTGAA (site TATGTGGCTTT) | 0.784
TATGTGGCATGGACCGGTTTTCCCGGTAATCCGTATTTGTG (site TATATGGCTCA) | 0.00536
TATGTGGCATGGACCGGTTTTCCCGGTAATCCGTATTTGTG (site TATCTGGCTCA) | 0.0111
TATGTGGCATGGACCGGTTTTCCCGGTAATCCGTATTTGTG (site TATGTGGCTCA) | 0.00847
TATGTGGCATGGACCGGTTTTCCCGGTAATCCGTATTTGTG (site TATTTGGCTCA) | 0.0197
TATTAACCATGGACCGGTTTTCCCGGTAATCCGTATTTGCC (site TATTAACCTGG) | 0
TATTCAACATGGACCGGTTTTCCCGGTAATCCGTATTTGCC (site TATTCAACTGG) | 0.527
TATTCGGCATGGACCGGTTTTCCCGGTAATCCGTATTTGGT (site TATTCGGCTAC) | 0
TATTCTGCATGGACCGGTTTTCCCGGTAATCCGTATTTGGA (site TATTCTGCTTC) | 0.603
TATTTAGCATGGACCGGTTTTCCCGGTAATCCGTATTTGTG (site TATTTAGCTCA) | 0.31
TATTTAGCATGGACCGGTTTTCCCGGTAATCCGTATTTGTG (site TATTTCGCTCA) | 0.026
TATTTAGCATGGACCGGTTTTCCCGGTAATCCGTATTTGTG (site TATTTGGCTCA) | 0.0112
TATTTAGCATGGACCGGTTTTCCCGGTAATCCGTATTTGTG (site TATTTTGCTCA) | 0.0238
TATTTGGCATGGACCGGTTTTCCCGGTAATCCGTATTTGGG (site TATTTGGCTCA) | 0
TATTTGGCATGGACCGGTTTTCCCGGTAATCCGTATTTGGG (site TATTTGGCTCC) | 0.0427
TATTTGGCATGGACCGGTTTTCCCGGTAATCCGTATTTGGG (site TATTTGGCTCG) | 0.0185

Sequence | recombinant UMI read abundance (log10)
TATTTGGCATGGACCGGTTTTCCCGGTAATCCGTATTTGGG (site TATTTGGCTCT) | 0.0188
TCAAATTCATGGACCGGTTTTCCCGGTAATCCGTATTTGCC (site TCAAATTCTGG) | 0.558
TCAAATTCATGGACCGGTTTTCCCGGTAATCCGTATTTGCC (site TCCAATTCTGG) | 0
TCAAATTCATGGACCGGTTTTCCCGGTAATCCGTATTTGCC (site TCGAATTCTGG) | 0
TCAAATTCATGGACCGGTTTTCCCGGTAATCCGTATTTGCC (site TCTAATTCTGG) | 0
TCAACCCCATGGACCGGTTTTCCCGGTAATCCGTATTTGGT (site TCAACCCCTAC) | 0
TCAACGTCATGGACCGGTTTTCCCGGTAATCCGTATTTGCA (site TCAACGTCTTG) | 0
TCAAGAACATGGACCGGTTTTCCCGGTAATCCGTATTTGGG (site TCAAGAACTCC) | 0.301
TCACACACATGGACCGGTTTTCCCGGTAATCCGTATTTGAT (site TCACACACTAT) | 1.33
TCACACACATGGACCGGTTTTCCCGGTAATCCGTATTTGTG (site TCACACACTCA) | 0.198
TCACACTCATGGACCGGTTTTCCCGGTAATCCGTATTTGCA (site TCAAACTCTTG) | 0
TCACACTCATGGACCGGTTTTCCCGGTAATCCGTATTTGCA (site TCACACTCTTG) | 2.68
TCACACTCATGGACCGGTTTTCCCGGTAATCCGTATTTGCA (site TCAGACTCTTG) | 0
TCACACTCATGGACCGGTTTTCCCGGTAATCCGTATTTGCA (site TCATACTCTTG) | 1.85
TCACGACCATGGACCGGTTTTCCCGGTAATCCGTATTTGTG (site TCACGACCTCA) | 0.0189
TCACGGCCATGGACCGGTTTTCCCGGTAATCCGTATTTGGT (site TCACGGCCTAC) | 0.00583
TCACTAACATGGACCGGTTTTCCCGGTAATCCGTATTTGGA (site TCACTAACTTC) | 0.957
TCACTATCATGGACCGGTTTTCCCGGTAATCCGTATTTGCA (site ACAGTATCTTG) | 0
TCACTATCATGGACCGGTTTTCCCGGTAATCCGTATTTGCA (site TCACTATCTTG) | 2.41
TCACTCGCATGGACCGGTTTTCCCGGTAATCCGTATTTGAA (site TCACTCGCTTT) | 1.86
TCAGACCCATGGACCGGTTTTCCCGGTAATCCGTATTTGGA (site TCAGACCCTTC) | 0.201
TCAGAGACATGGACCGGTTTTCCCGGTAATCCGTATTTGAG (site TCAGAGACTCA) | 0.02
TCAGAGACATGGACCGGTTTTCCCGGTAATCCGTATTTGAG (site TCAGAGACTCC) | 0.288

Sequence | recombinant UMI read abundance (log10)
TCAGAGACATGGACCGGTTTTCCCGGTAATCCGTATTTGAG (site TCAGAGACTCG) | 0.938
TCAGAGACATGGACCGGTTTTCCCGGTAATCCGTATTTGAG (site TCAGAGACTCT) | 1.82
TCAGAGACATGGACCGGTTTTCCCGGTAATCCGTATTTGCG (site ACAGAGACTCG) | 1.11
TCAGAGACATGGACCGGTTTTCCCGGTAATCCGTATTTGCG (site CCAGAGACTCG) | 1.66
TCAGAGACATGGACCGGTTTTCCCGGTAATCCGTATTTGCG (site GCAGAGACTCG) | 0.00466
TCAGAGACATGGACCGGTTTTCCCGGTAATCCGTATTTGCG (site TAAGAGACTCG) | 1.02
TCAGAGACATGGACCGGTTTTCCCGGTAATCCGTATTTGCG (site TCAAAGACTCG) | 1.55
TCAGAGACATGGACCGGTTTTCCCGGTAATCCGTATTTGCG (site TCACAGACTCG) | 0.316
TCAGAGACATGGACCGGTTTTCCCGGTAATCCGTATTTGCG (site TCAGAAACTCG) | 1.73
TCAGAGACATGGACCGGTTTTCCCGGTAATCCGTATTTGCG (site TCAGACACTCG) | 0.327
TCAGAGACATGGACCGGTTTTCCCGGTAATCCGTATTTGCG (site TCAGAGACTAG) | 0.65
TCAGAGACATGGACCGGTTTTCCCGGTAATCCGTATTTGCG (site TCAGAGACTCA) | 0.943
TCAGAGACATGGACCGGTTTTCCCGGTAATCCGTATTTGCG (site TCAGAGACTCC) | 0.0212
TCAGAGACATGGACCGGTTTTCCCGGTAATCCGTATTTGCG (site TCAGAGACTCG) | 2.3
TCAGAGACATGGACCGGTTTTCCCGGTAATCCGTATTTGCG (site TCAGAGACTCT) | 0.0281
TCAGAGACATGGACCGGTTTTCCCGGTAATCCGTATTTGCG (site TCAGAGACTGG) | 0.387
TCAGAGACATGGACCGGTTTTCCCGGTAATCCGTATTTGCG (site TCAGAGACTTG) | 1.84
TCAGAGACATGGACCGGTTTTCCCGGTAATCCGTATTTGCG (site TCAGAGCCTCG) | 0.0106
TCAGAGACATGGACCGGTTTTCCCGGTAATCCGTATTTGCG (site TCAGAGGCTCG) | 1.98
TCAGAGACATGGACCGGTTTTCCCGGTAATCCGTATTTGCG (site TCAGAGTCTCG) | 1.37
TCAGAGACATGGACCGGTTTTCCCGGTAATCCGTATTTGCG (site TCAGATACTCG) | 0.784
TCAGAGACATGGACCGGTTTTCCCGGTAATCCGTATTTGCG (site TCAGCGACTCG) | 0.00351
